Common to all, as to assay type: cell-based
The test system of experiment [1] is Jurkat (acute T-cell leukemia). Description: CCK8 growth inhibition of leukemia cells, Jurkat. The conditions noted are these: for IC50: Homo sapiens, Jurkat, 48 h, read-out: IC50 Jurkat. Here is the method:
(§1) Example 6: CCK8 Method to Detect the Growth Inhibitory Effect of Gossypol Isocyanate Ester Compounds on Three Kinds of Leukemia Cells
(§2) Cell lines: Jurkat (acute T-cell leukemia), HL-60 (human promyelocytic leukemia cells), K-562 (chronic myeloid leukemia), provided by the Affiliated Hospital of Guangdong Medical College. The cells were cultured in RPMI1640 medium containing 10% fetal bovine serum, penicillin […], streptomycin 100 mg/L, 37° C., 5% CO2, saturated humidity incubator, and the logarithmic growth phase cells were tested.
(§3) Test method: The logarithmic growth phase leukemia cell lines were taken, counted, and inoculated on a 96-well culture plate at a density of 1×10^5/mL, 100 μL per well. After 24 hours of cultivation, 100 μL of double-concentration medium containing different concentrations of compounds was added to each well. The medium containing the highest concentration of DMSO was used as the solvent control. After 48 hours of drug action, 20 μL of CCK8 color developing solution was added to each well, and the color was developed at 37° C. The OD450 was measured with a microplate reader until the absorbance was about 1.5. The inhibition rate was calculated using the formula: Inhibition Rate (%)=(1−Absorbance Value of Administration Group/Absorbance Value of Control Group)×100%
(§4) The half-inhibitory concentration of cells (IC50) was calculated by the Kou's method.

Experiment [2] deals with HL-60 (human promyelocytic leukemia cells). The experiment in a line: CCK8 growth inhibition of leukemia cells, HL-60. The following applies: for IC50: Homo sapiens, HL-60, 48 h, read-out: IC50 HL-60. Here is the method: as §1, §2, §3, §4
Experiment [3] deals with K-562 (chronic myeloid leukemia). The experiment in a line: CCK8 growth inhibition of leukemia cells, K-562. The conditions noted are these: for IC50: Homo sapiens, K562, 48 h, read-out: IC50 K562. Here is the method: as §1, §2, §3, §4

Broadly, the IC50 is the concentration that inhibits the measured activity by half.

As to `Cc1cc(-c2ccc(NC(=O)O/C=C3\C(=O)C(O)=C(C(C)C)c4cc(C)c(-c5c(C)cc6c(c5O)/C(=C/OC(=O)Nc5ccc(-c7ccc(N)c(C)c7)cc5C)C(=O)C(O)=C6C(C)C)c(O)c43)c(C)c2)ccc1N` [Compound 5, ((8Z,8′)-1,1′,6,6′-tetrahydroxy-5,5′-diisopropyl-3,3′-dimethyl-7,7′-dioxo-[2,2′-binaphthalene]-8,8′(7H,7′H)-diylidene)bis(methaneylylidene) bis((4′-amino-3,3′-dimethyl-[1,1′-biphenyl]-4-yl)carbamate)], the values for the IC50 in experiment [1], in experiment [2] and in experiment [3] were 32.6 µM, 28.4 µM and 48.8 µM, respectively.

On to `Cc1cc2c(c(O)c1-c1c(C)cc3c(c1O)/C(=C/OC(=O)Nc1ccccc1)C(=O)C(O)=C3C(C)C)/C(=C/OC(=O)Nc1ccccc1)C(=O)C(O)=C2C(C)C` [Compound 1, (1Z,1′Z)-(1,1′,6,6′-tetrahydroxy-5,5′-diisopropyl-3,3′-dimethyl-7,7′-dioxo-[2,2′-binaphthal-ene]-8,8′(7H,7′H)-diylidene)bis(methanylylidene) bis(phenylcarbamate)], for which the figures for the IC50 in experiment [1], in experiment [2] and in experiment [3] were 18.3 µM, 31.7 µM and 37.1 µM, respectively.

With `Cc1cc2c(c(O)c1-c1c(C)cc3c(c1O)/C(=C/OC(=O)Nc1cccc4c(N)cccc14)C(=O)C(O)=C3C(C)C)/C(=C/OC(=O)Nc1cccc3c(N)cccc13)C(=O)C(O)=C2C(C)C` [Compound 4, ((8Z,8′Z)-1,1′,6,6′-tetrahydroxy-5,5′-diisopropyl-3,3′-dimethyl-7,7′-dioxo-[2,2′-binaphthalene]-8,8′(7H,7′H)-diylidene)bis(methaneylylidene) bis((5-aminonaphthalen-1-yl)carbamate)], the values for the IC50 in experiment [1], in experiment [2] and in experiment [3] were 21.7 µM, 15.9 µM and 21.7 µM, respectively.

Turning to `Cc1cc2c(c(O)c1-c1c(C)cc3c(c1O)/C(=C/OC(=O)Nc1ccc(N)cc1)C(=O)C(O)=C3C(C)C)/C(=C/OC(=O)Nc1ccc(N)cc1)C(=O)C(O)=C2C(C)C` [Compound 3, ((8Z,8′Z)-1,1′,6,6′-tetrahydroxy-5,5′-diisopropyl-3,3′-dimethyl-7,7′-dioxo-[2,2′-binaphthalene]-8,8′(7H,7′H)-diylidene)bis(methaneylylidene) bis((4-aminophenyl)carbamate)], the half-maximal inhibitory concentration (IC50) in experiment [1] stood at 13 µM; in experiment [2] it was 26.6 µM; in experiment [3] it was 16.3 µM. The “anti-leukemia activity (in words)” value in experiment [1] (Jurkat cells, CCK8) is “active”; in experiment [2] (HL-60 cells, CCK8), “active”; in experiment [3] (K562 cells, CCK8), “active”.

For the compound `CCNC(=O)O/C=C1\C(=O)C(O)=C(C(C)C)c2cc(C)c(-c3c(C)cc4c(c3O)/C(=C/OC(=O)NCC)C(=O)C(O)=C4C(C)C)c(O)c21` [Compound 2, (1Z,1′Z)-(1,1′,6,6′-tetrahydroxy-5,5′-diisopropyl-3,3′-dimethyl-7,7′-dioxo-[2,2′-binaphtha-lene]-8,8′(7H,7′H)-diylidene)bis(methanylylidene) bis(ethylcarbamate)], the IC50 came out at 68.2 µM in experiment [1], 92.2 µM in experiment [2] and 49.1 µM in experiment [3].
